We go through six compounds from US8546320B2, “Hsp9O-targeted anti-cancer chimeric peptide” (Kyoto University, priority 2008, dated 2013).

SMILES strings stand for the structures. Where a SMILES comes first, the peptide text is derived from it.

In one experiment the test system is Caki-1. The class given is cell-based, human. To be noted: Caki-1; for Anti-cancer activity (% relative to wild-type peptide) / Decrease in cell survival rate (% relative to wild-type peptide): wild-type peptide = 100%.
A further experiment concerns U937. As to the kind of experiment: cells. The experiment is classed as cell-based, human. To be noted: for Anti-cancer activity (% relative to wild-type peptide) / Decrease in cell survival rate (% relative to wild-type peptide) / killing effect compared with the wild-type peptide: U937; for Anti-cancer activity (% relative to wild-type peptide) / Decrease in cell survival rate (% relative to wild-type peptide): wild-type peptide = 100%. As to the method:
A total of 3×10^3 cells per well were inoculated onto a 96 well plate, and incubated in a medium containing 10% FBS with 100 μl of a peptide diluted stepwise at 37° C. for 48 to 72 hours. The survival rate of the cells was measured by using WST-8 solution (Cell Count Reagent SF; Nacalai Tesque, Inc.).

In another experiment the test system is cancer cells. As to the kind of experiment: Cell viability assay, summary statements on cancer cells. The class given is cell-based. To be noted: single mutation in TPR or Antp region of Antp-TPR.

In the case of `CC[C@H](C)[C@H](NC(=O)[C@H](CCCCN)NC(=O)[C@H](C)NC(=O)[C@H](Cc1ccc(O)cc1)NC(=O)[C@H](C)NC(=O)[C@H](CCCCN)NC(=O)[C@H](CCCCN)NC(=O)[C@H](CCCCN)NC(=O)[C@H](Cc1c[nH]c2ccccc12)NC(=O)[C@H](CCCCN)NC(=O)[C@H](CCSC)NC(=O)[C@H](CCCNC(=N)N)NC(=O)[C@H](CCCNC(=N)N)NC(=O)[C@H](CC(N)=O)NC(=O)[C@H](CCC(N)=O)NC(=O)[C@H](Cc1ccccc1)NC(=O)[C@H](Cc1c[nH]c2ccccc12)NC(=O)[C@@H](NC(=O)[C@H](CCCCN)NC(=O)[C@@H](NC(=O)[C@H](CCC(N)=O)NC(=O)[C@@H](N)CCCNC(=N)N)[C@@H](C)CC)[C@@H](C)CC)C(=O)NCC(=O)N[C@@H](CC(N)=O)C(=O)N[C@@H](CO)C(=O)N[C@@H](Cc1ccc(O)cc1)C(=O)N[C@@H](Cc1ccccc1)C(=O)N[C@@H](CCCCN)C(=O)O` [Antp-R5K] (H-RQIKIWFQNRRMKWKKKAYAKIGNSYFK-OH; N-terminus and C-terminus assumed), in the experiment on Caki-1, the “Anti-cancer activity (% relative to wild-type peptide)” value turned out to be 6.58% and the “Decrease in cell survival rate (% relative to wild-type peptide)” value (“Decrease … (% relative to wild-type peptide)” for short) turned out to be 11.34%. Besides, in the experiment with U937, the “Cell Survival Rate (%)” value was determined as 92.57%, the “Anti-cancer activity (% relative to wild-type peptide)” value was found to be 9.68% and the “Decrease … (% relative to wild-type peptide)” value was found to be 25.10%. In addition, the “effect compared with the wild-type protein (summary of mutations)” value with cancer cells is “effective but with a lower effect than the wild-type protein”.
For `CC[C@H](C)[C@H](NC(=O)[C@H](CCCNC(=N)N)NC(=O)[C@H](C)NC(=O)[C@H](Cc1ccc(O)cc1)NC(=O)[C@H](C)NC(=O)[C@H](CCCCN)NC(=O)[C@H](CCCCN)NC(=O)[C@H](CCCCN)NC(=O)[C@H](Cc1c[nH]c2ccccc12)NC(=O)[C@H](CCCCN)NC(=O)[C@H](CCSC)NC(=O)[C@H](CCCNC(=N)N)NC(=O)[C@H](CCCNC(=N)N)NC(=O)[C@H](CC(N)=O)NC(=O)[C@H](CCC(N)=O)NC(=O)[C@H](Cc1ccccc1)NC(=O)[C@H](Cc1c[nH]c2ccccc12)NC(=O)[C@@H](NC(=O)[C@H](CCCCN)NC(=O)[C@@H](NC(=O)[C@H](CCC(N)=O)NC(=O)[C@@H](N)CCCNC(=N)N)[C@@H](C)CC)[C@@H](C)CC)C(=O)NCC(=O)N[C@@H](CC(N)=O)C(=O)N[C@@H](Cc1ccc(O)cc1)C(=O)N[C@@H](Cc1ccc(O)cc1)C(=O)N[C@@H](Cc1ccccc1)C(=O)N[C@@H](CCCCN)C(=O)O` [Antp-S9Y] (H-RQIKIWFQNRRMKWKKKAYARIGNYYFK-OH; N-terminus and C-terminus assumed), in the experiment on Caki-1, the “killing effect compared with the wild-type peptide” value is “stronger than that of the wild-type peptide”, the “Anti-cancer activity (% relative to wild-type peptide)” value turned out to be 106.80% and the “Decrease … (% relative to wild-type peptide)” value stood at 232.05%. In the experiment on U937, the “Cell Survival Rate (%)” value is 12.73%, the “killing effect compared with the wild-type peptide” value is “increase in effect”, the “Anti-cancer activity (% relative to wild-type peptide)” value is reported as 113.69% and the “Decrease … (% relative to wild-type peptide)” value amounted to 182.60%. Also, the “effect compared with the wild-type protein (summary of mutations)” value in the experiment on cancer cells is on record as “effect higher than the wild-type protein”.
With `CC[C@H](C)[C@H](NC(=O)[C@H](CCCNC(=N)N)NC(=O)[C@H](C)NC(=O)[C@H](Cc1ccc(O)cc1)NC(=O)[C@H](C)NC(=O)[C@H](CCCCN)NC(=O)[C@H](CCCCN)NC(=O)[C@H](CCCCN)NC(=O)[C@H](Cc1c[nH]c2ccccc12)NC(=O)[C@H](CCCCN)NC(=O)[C@H](CCSC)NC(=O)[C@H](CCCNC(=N)N)NC(=O)[C@H](CCCNC(=N)N)NC(=O)[C@H](CC(N)=O)NC(=O)[C@H](CCC(N)=O)NC(=O)[C@H](Cc1ccccc1)NC(=O)[C@H](Cc1c[nH]c2ccccc12)NC(=O)[C@@H](NC(=O)[C@H](CCCCN)NC(=O)[C@@H](NC(=O)[C@H](CCC(N)=O)NC(=O)[C@@H](N)CCCNC(=N)N)[C@@H](C)CC)[C@@H](C)CC)C(=O)NCC(=O)N[C@@H](CC(N)=O)C(=O)N[C@@H](CO)C(=O)N[C@@H](Cc1ccc(O)cc1)C(=O)N[C@@H](Cc1ccc(O)cc1)C(=O)N[C@@H](CCCCN)C(=O)O` [Antp-F11Y] (H-RQIKIWFQNRRMKWKKKAYARIGNSYYK-OH; N-terminus and C-terminus assumed), in the experiment on Caki-1, the “killing effect compared with the wild-type peptide” value is recorded as “stronger than that of the wild-type peptide”, the “Anti-cancer activity (% relative to wild-type peptide)” value turned out to be 110.50% and the “Decrease … (% relative to wild-type peptide)” value is given as 820.08%. Besides, in the experiment with U937, the “Cell Survival Rate (%)” value amounted to 1.10%, the “killing effect compared with the wild-type peptide” value is given as “increase in effect”, the “Anti-cancer activity (% relative to wild-type peptide)” value is given as 128.84% and the “Decrease … (% relative to wild-type peptide)” value is reported as 2116.95%. Besides, in the experiment with cancer cells, the “effect compared with the wild-type protein (summary of mutations)” value is given as “effect higher than the wild-type protein”.
As for `CC[C@H](C)[C@H](NC(=O)[C@H](CCCNC(=N)N)NC(=O)[C@H](C)NC(=O)[C@H](Cc1ccc(O)cc1)NC(=O)[C@H](C)NC(=O)[C@H](CCCCN)NC(=O)[C@H](CCCCN)NC(=O)[C@H](CCCCN)NC(=O)[C@H](Cc1c[nH]c2ccccc12)NC(=O)[C@H](CCCCN)NC(=O)[C@H](CCSC)NC(=O)[C@H](CCCNC(=N)N)NC(=O)[C@H](CCCNC(=N)N)NC(=O)[C@H](CC(N)=O)NC(=O)[C@H](CCC(N)=O)NC(=O)[C@H](Cc1ccccc1)NC(=O)[C@H](Cc1c[nH]c2ccccc12)NC(=O)[C@@H](NC(=O)[C@H](CCCCN)NC(=O)[C@@H](NC(=O)[C@H](CCC(N)=O)NC(=O)[C@@H](N)CCCNC(=N)N)[C@@H](C)CC)[C@@H](C)CC)C(=O)N[C@@H](C)C(=O)N[C@@H](CC(N)=O)C(=O)N[C@@H](CO)C(=O)N[C@@H](Cc1ccc(O)cc1)C(=O)N[C@@H](Cc1ccccc1)C(=O)N[C@@H](CCCCN)C(=O)O` [Antp-G7A] (H-RQIKIWFQNRRMKWKKKAYARIANSYFK-OH; N-terminus and C-terminus assumed), in the experiment on Caki-1, the “Anti-cancer activity (% relative to wild-type peptide)” value amounted to 96.23% and the “Decrease … (% relative to wild-type peptide)” value is 76.07%. Further, in the experiment on U937, the “Cell Survival Rate (%)” value amounted to 16.85%, the “killing effect compared with the wild-type peptide” value is listed as “increase in effect”, the “Anti-cancer activity (% relative to wild-type peptide)” value turned out to be 108.32% and the “Decrease … (% relative to wild-type peptide)” value turned out to be 137.88%. Besides, in the experiment with cancer cells, the “effect compared with the wild-type protein (summary of mutations)” value was “effect similar to that of the wild-type protein”.
Take `CC[C@H](C)[C@H](NC(=O)[C@H](CCCNC(=N)N)NC(=O)[C@H](C)NC(=O)[C@H](Cc1ccc(O)cc1)NC(=O)[C@H](C)NC(=O)[C@H](CCCNC(=N)N)NC(=O)[C@H](CCCCN)NC(=O)[C@H](CCCCN)NC(=O)[C@H](Cc1c[nH]c2ccccc12)NC(=O)[C@H](CCCCN)NC(=O)[C@H](CCSC)NC(=O)[C@H](CCCNC(=N)N)NC(=O)[C@H](CCCNC(=N)N)NC(=O)[C@H](CC(N)=O)NC(=O)[C@H](CCC(N)=O)NC(=O)[C@H](Cc1ccccc1)NC(=O)[C@H](Cc1c[nH]c2ccccc12)NC(=O)[C@@H](NC(=O)[C@H](CCCCN)NC(=O)[C@@H](NC(=O)[C@H](CCC(N)=O)NC(=O)[C@@H](N)CCCNC(=N)N)[C@@H](C)CC)[C@@H](C)CC)C(=O)NCC(=O)N[C@@H](CC(N)=O)C(=O)N[C@@H](CO)C(=O)N[C@@H](Cc1ccc(O)cc1)C(=O)N[C@@H](Cc1ccccc1)C(=O)N[C@@H](CCCCN)C(=O)O` [Antp-K1R] (H-RQIKIWFQNRRMKWKKRAYARIGNSYFK-OH; N-terminus and C-terminus assumed): in the experiment with Caki-1, the “Anti-cancer activity (% relative to wild-type peptide)” value was 35.81% and the “Decrease … (% relative to wild-type peptide)” value worked out at 15.70%. For the same compound, in the experiment with U937, the “Cell Survival Rate (%)” value came to 91.39%, the “Anti-cancer activity (% relative to wild-type peptide)” value is 11.22% and the “Decrease … (% relative to wild-type peptide)” value was determined as 25.43%. Also, the “effect compared with the wild-type protein (summary of mutations)” value in the experiment on cancer cells was “effective but with a lower effect than the wild-type protein”.
Consider `CC[C@H](C)[C@H](NC(=O)[C@H](CCCNC(=N)N)NC(=O)[C@H](C)NC(=O)[C@H](CC(C)C)NC(=O)[C@H](C)NC(=O)[C@H](CCCCN)NC(=O)[C@H](CCCCN)NC(=O)[C@H](CCCCN)NC(=O)[C@H](Cc1c[nH]c2ccccc12)NC(=O)[C@H](CCCCN)NC(=O)[C@H](CCSC)NC(=O)[C@H](CCCNC(=N)N)NC(=O)[C@H](CCCNC(=N)N)NC(=O)[C@H](CC(N)=O)NC(=O)[C@H](CCC(N)=O)NC(=O)[C@H](Cc1ccccc1)NC(=O)[C@H](Cc1c[nH]c2ccccc12)NC(=O)[C@@H](NC(=O)[C@H](CCCCN)NC(=O)[C@@H](NC(=O)[C@H](CCC(N)=O)NC(=O)[C@@H](N)CCCNC(=N)N)[C@@H](C)CC)[C@@H](C)CC)C(=O)NCC(=O)N[C@@H](CC(N)=O)C(=O)N[C@@H](CO)C(=O)N[C@@H](Cc1ccc(O)cc1)C(=O)N[C@@H](Cc1ccccc1)C(=O)N[C@@H](CCCCN)C(=O)O` [Antp-Y3L] (H-RQIKIWFQNRRMKWKKKALARIGNSYFK-OH; N-terminus and C-terminus assumed), for which, in the experiment on Caki-1, the “Anti-cancer activity (% relative to wild-type peptide)” value turned out to be 52.87% and the “Decrease … (% relative to wild-type peptide)” value was determined as 20.23%. Further, in the experiment with U937, the “Cell Survival Rate (%)” value is 60.94%, the “Anti-cancer activity (% relative to wild-type peptide)” value came to 50.89% and the “Decrease … (% relative to wild-type peptide)” value amounted to 38.14%. For the same compound, the “effect compared with the wild-type protein (summary of mutations)” value with cancer cells is reported as “effective but with a lower effect than the wild-type protein”.
